This series addresses T1, trypsin (Sus scrofa, UniProt P00761).
T1 construct: purchased Promega V5113
Nature of the series: Resistance to trypsin (residual cAMP activity). Type of series: in vitro ADME. As to the method: Then, 5 μl of 500 μg/ml trypsin (Promega Cat. No. V5113) was added to 100 μl of the solution, and the mixture was incubated at 37° C. for 1 hour. The reaction was terminated by adding 1200 μl of 71.5% (final 65%) ethanol, and the reaction solution was centrifuged at 15,000 rpm at 4° C. for 5 minutes to recover a supernatant which was then evaporated into dryness. The dried product was dissolved in distilled water and measured for cAMP activity by the method in Test Example 1, to determine the residual activity (%).

T1 sequence (P00761 9-231): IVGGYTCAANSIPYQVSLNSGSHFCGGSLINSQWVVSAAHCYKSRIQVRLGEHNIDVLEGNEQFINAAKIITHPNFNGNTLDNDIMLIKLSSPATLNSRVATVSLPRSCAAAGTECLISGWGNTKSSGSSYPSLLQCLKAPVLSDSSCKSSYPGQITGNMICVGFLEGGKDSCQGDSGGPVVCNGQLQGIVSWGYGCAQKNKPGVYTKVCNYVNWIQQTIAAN

As to `CC[C@H](C)[C@H](NC(=O)[C@H](Cc1ccccc1)NC(=O)[C@H](CCC(=O)O)NC(=O)[C@H](CCC(N)=O)NC(=O)[C@H](C)NC(=O)[C@H](C)NC(=O)[C@H](CCC(N)=O)NC(=O)CNC(=O)[C@H](CCC(=O)O)NC(=O)[C@H](CC(C)C)NC(=O)[C@H](Cc1ccc(O)cc1)NC(=O)[C@H](CO)NC(=O)[C@H](CO)NC(=O)[C@@H](NC(=O)[C@H](CC(=O)O)NC(=O)[C@H](CO)NC(=O)[C@@H](NC(=O)[C@H](Cc1ccccc1)NC(=O)[C@@H](NC(=O)CNC(=O)[C@H](CCC(=O)O)NC(=O)[C@H](C)NC(=O)[C@@H](N)Cc1c[nH]cn1)[C@@H](C)O)[C@@H](C)O)C(C)C)C(=O)N[C@@H](C)C(=O)N[C@@H](Cc1c[nH]c2ccccc12)C(=O)N[C@@H](CC(C)C)C(=O)N[C@H](C(=O)N[C@@H](CC(N)=O)C(=O)NCC(=O)N[C@@H](CCCNC(=N)N)C(N)=O)C(C)C` [26Q34N-GLP-1, [Gln^26, Asn^34]-GLP-1 (7-35)-Arg-NH2], the “Residual activity (%)” value was determined as 94.8% (Trypsin + (37° C., 1 hour, pH 7.8)) and 100% (Trypsin − (not treated)).

The values are drawn from patent US7291594B2 (Sanwa Kagaku Kenkyusho Co., Ltd., priority 2002, dated 2007).
